Experimental findings from ChEMBL document CHEMBL1201862, “PubChem BioAssay data set” (2004) are described below.

Common to all, as to assay: NCI-60 cell line screen, 48 h
Assay [1] has as its system 786-0.
For assay [2], the system named is CCRF-CEM.
The test system of assay [3] is HCT-15.
The subject of assay [4] is HL-60.
Assay [5] concerns HOP-62.
The test system of assay [6] is IGROV-1.
The subject of assay [7] is K562.
The test system of assay [8] is KM12.
Assay [9] concerns LOX IMVI.
In assay [10] the test system is M14.
Assay [11] deals with MCF7.
For assay [12], the system named is NCI-H23.
For assay [13], the system named is OVCAR-4.
The subject of assay [14] is RXF 393.
Assay [15] relates to SF-295.
Assay [16] concerns SF-539.
The test system of assay [17] is SW-620.
Assay [18] concerns U-251.
The test system of assay [19] is UACC-257.

The structures appear in SMILES notation.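 Method: 48-hour compound exposure of cells in 96-well plates, five concentrations, linear interpolation of endpoints. GI50 = concentration required for 50% inhibition of growth.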 Activity calls are given as the source filed them. Rule as the data show it: active = GI50 up to about 1.1 µM and inactive = higher.

For the compound `Cc1c(-c2ccccc2)c(-c2ccc(OCCN(C)C)cc2)n2ccccc12`, the GI50 in assay [1] is 7.11 µM (inactive); in assay [2], 3.72 µM (inactive); in assay [3] it was 2.55 µM; in assay [4] it was 3.67 µM (inactive); in assay [5], 13.1 µM (inactive); in assay [6] it was 10.1 µM (inactive). Further, the GI50 in [7] was 1.84 µM (inactive); in assay [8] it was 3.82 µM (inactive); in [9], 2.23 µM (inactive); in assay [10] it was 1.79 µM (inactive); in assay [11], 7.62 µM (inactive); in assay [12], 16.6 µM (inactive). Further, the GI50 is 12.4 µM (inactive) in assay [13]; 7.69 µM (inactive) in assay [14]; 12.2 µM (inactive) in assay [15]; 10.5 µM (inactive) in assay [16]; 5.5 µM (inactive) in assay [17]; 7.76 µM (inactive) in [18]. Further, the GI50 in assay [19] was 2.04 µM (inactive).
For `O=[N+]([O-])c1cccc2nc3ccccc3c(NCCCN3CCCCC3)c12`, the GI50 was < 0.01 µM (active) in [1]; 0.024 µM (active) in assay [2]; 0.0158 µM in [3]; 0.0252 µM (active) in [4]; 0.0125 µM (active) in [5]; < 0.0104 µM (active) in assay [6]. Further, the GI50 in assay [7] was < 0.0123 µM (active); in assay [8], 0.014 µM (active); in assay [9] it was 0.0194 µM (active); in [10] it was 0.0116 µM (active); in [11] it was < 0.01 µM (active); in assay [12] it was < 0.01 µM (active). In addition, the GI50 in assay [13] is < 0.01 µM (active); in assay [14], 0.0101 µM (active); in assay [15], 0.0146 µM (active); in assay [16], 0.0163 µM (active); in [17], < 0.01 µM (active); in [18], < 0.0135 µM (active). In addition, the GI50 in [19] is 0.0219 µM (active).
Consider `CCOC(=O)Nc1ccc(S(=O)(=O)Nc2ccc(Br)cc2)cc1`, for which the GI50 was 36.8 µM (inactive) in assay [1]; 46.8 µM (inactive) in assay [2]; 61.5 µM in [3]; 25.6 µM (inactive) in assay [4]; 33.5 µM (inactive) in [5]; 35 µM (inactive) in assay [6]. Besides, the GI50 in assay [7] was 17.3 µM (inactive); in assay [8] it was 37.3 µM (inactive); in assay [9] it was 26.4 µM (inactive); in assay [10] it was 49.3 µM (inactive); in [11], 23.3 µM (inactive); in assay [12] it was 31 µM (inactive). The GI50 in [13] is 13.6 µM (inactive); in [14], 22 µM (inactive); in [15] it was 30.9 µM (inactive); in assay [16], 17.2 µM (inactive); in assay [17], 24.3 µM (inactive); in assay [18] it was 43 µM (inactive). Also, in [19], the GI50 is 61.4 µM (inactive).
Take `O=C(CSc1nnc(-c2ccccn2)s1)N/N=C/c1ccc([N+](=O)[O-])cc1`: the GI50 is 41.9 µM (inactive) in [1]; > 100 µM (inactive) in assay [2]; 45.6 µM in [3]; > 100 µM (inactive) in [4]; 35.6 µM (inactive) in [5]; 20.9 µM (inactive) in assay [6]. Further, the GI50 in assay [7], in assay [8], in assay [9], in [10], in [11] and in assay [12] was > 100 µM (inactive) in each case. Further, the GI50 in [13] was > 100 µM (inactive); in assay [14], 12.1 µM (inactive); in assay [15], 29.4 µM (inactive); in assay [16] it was 59.2 µM (inactive); in assay [17] it was > 100 µM (inactive); in [18], 14.5 µM (inactive). The GI50 in assay [19] was > 100 µM (inactive).
`COc1ccc(C2=C(N)c3ncccc3C2=O)cc1`: the GI50 in assay [1] was > 100 µM (inactive); in [2] it was > 100 µM (inactive); in [3] it was more than 100 µM; in [4] it was 93.8 µM (inactive); in assay [5], > 100 µM (inactive); in [6] it was > 100 µM (inactive). In addition, the GI50 in assay [7], in [8], in assay [9], in [10], in assay [11] and in [12] was > 100 µM (inactive) each time. The GI50 in assay [13] is > 100 µM (inactive); in assay [14], 24.7 µM (inactive); in [15], > 100 µM (inactive); in assay [16], > 100 µM (inactive); in assay [17], > 100 µM (inactive); in assay [18], > 100 µM (inactive). The GI50 in [19] was > 10 µM (inactive).
For `Cc1ccc2nc(C(=O)O)c(=O)[nH]c2c1`, the GI50 in [1] was > 100 µM (inactive); in [2], > 100 µM (inactive); in [3], more than 100 µM; in assay [4], > 100 µM (inactive); in assay [5], > 100 µM (inactive); in assay [6], > 100 µM (inactive). The GI50 in assay [7], in assay [8], in assay [9], in assay [10], in [11] and in assay [12] was > 100 µM (inactive) throughout. For the same compound, the GI50 in assay [13], in assay [14], in assay [15], in [16], in assay [17] and in [18] was > 100 µM (inactive) in each case. Also, the GI50 in assay [19] was > 100 µM (inactive).
For `CCOC(=O)c1cnccc1CC1(C#N)c2ccccc2C=CN1C(=O)c1ccccc1` (centres undefined), the GI50 is 29.7 µM (inactive) in assay [1]; 40.3 µM (inactive) in assay [2]; 31 µM in assay [3]; 18.5 µM (inactive) in assay [4]; 53.2 µM (inactive) in [5]; 17.3 µM (inactive) in assay [6]. Also, the GI50 in assay [7] was 6.93 µM (inactive); in [8], 13.3 µM (inactive); in assay [9] it was 24.1 µM (inactive); in assay [10], 24.3 µM (inactive); in assay [11], 39.2 µM (inactive); in assay [12], 32.5 µM (inactive). In addition, the GI50 in assay [13] is 21.7 µM (inactive); in [14] it was 64.9 µM (inactive); in assay [15], 53.6 µM (inactive); in assay [16], 30.1 µM (inactive); in assay [17] it was 47.3 µM (inactive); in assay [18] it was 37.3 µM (inactive). The GI50 in assay [19] was 34.7 µM (inactive).
For the compound `CCOC1CN=C(Nc2cccc3ccccc23)S1` (centres undefined), the GI50 was > 10 µM (inactive) in [1]; > 10 µM (inactive) in [2]; more than 10 µM in [3]; > 10 µM (inactive) in assay [4]; > 10 µM (inactive) in assay [5]; > 10 µM (inactive) in assay [6]. Moreover, the GI50 in assay [7], in assay [8], in assay [9], in assay [10], in assay [11] and in assay [12] was > 10 µM (inactive) in each case. For the same compound, the GI50 in assay [13], in assay [14], in assay [15], in [16], in assay [17] and in assay [18] was > 10 µM (inactive) throughout. The GI50 in assay [19] is > 10 µM (inactive).
For the compound `COC(=O)C1=C(C)NC(=O)N2[C@@H](CCOCc3ccccc3)CC[C@@H]12`, the GI50 in assay [1] was > 50 µM (inactive); in assay [2], > 50 µM (inactive); in assay [3], more than 50 µM; in [4], > 50 µM (inactive); in [5] it was > 50 µM (inactive); in assay [6], > 50 µM (inactive). Further, the GI50 in [7], in assay [8], in assay [9], in assay [10], in assay [11] and in [12] was > 50 µM (inactive) throughout. Further, the GI50 in [13] was > 50 µM (inactive); in [14], 13.1 µM (inactive); in assay [15] it was > 50 µM (inactive); in assay [16], > 50 µM (inactive); in assay [17] it was > 50 µM (inactive); in [18], > 50 µM (inactive). Moreover, the GI50 in assay [19] is > 50 µM (inactive).
For `Cc1c(-c2ccccc2)c(C#N)c2nnn(-c3ccc(Cl)cc3)c(=O)n12`, the GI50 in [1] was 18.3 µM (inactive); in assay [2] it was 18.3 µM (inactive); in [3] it was 10.1 µM; in assay [4], 4.43 µM (inactive); in assay [5] it was 7.14 µM (inactive); in assay [6], 32.7 µM (inactive). In addition, the GI50 in assay [7] is 0.668 µM (active); in assay [8] it was 24.2 µM (inactive); in assay [9], 0.714 µM (active); in assay [10], 5.08 µM (inactive); in assay [11], 7.59 µM (inactive); in [12] it was 37 µM (inactive). Moreover, the GI50 in assay [13] was 25.8 µM (inactive); in [14], 28.2 µM (inactive); in assay [15], 7.06 µM (inactive); in assay [16], 20.7 µM (inactive); in assay [17] it was 25.2 µM (inactive); in assay [18] it was 13.8 µM (inactive). The GI50 in [19] is 35.8 µM (inactive).
Consider `Nc1ccc(-c2nc3cc(F)ccc3s2)cc1CO`, for which the GI50 in [1] is 30.9 µM (inactive); in [2], 89.5 µM (inactive); in assay [3] it was 41 µM; in assay [4] it was > 76.9 µM (inactive); in assay [5], 17.5 µM (inactive); in [6], < 0.01 µM (active). The GI50 is > 100 µM (inactive) in assay [7]; > 100 µM (inactive) in [8]; 62.7 µM (inactive) in [9]; > 49.5 µM (inactive) in [10]; < 0.01 µM (active) in assay [11]; 0.436 µM (active) in assay [12]. Further, the GI50 in [13] was > 100 µM (inactive); in assay [14], 15.5 µM (inactive); in assay [15], 14.4 µM (inactive); in assay [16], 20.1 µM (inactive); in [17] it was > 100 µM (inactive); in assay [18] it was 16.4 µM (inactive). Moreover, in assay [19], the GI50 is > 69.3 µM (inactive).
